# Patent US5196437A, “Method for treating hepatic diseases and regenerating liver tissue using FK 506 and related compounds” (Fujisawa Pharmaceutical Company, Ltd., priority 1990, dated 1993)
# What was measured:
# [1] = system: hepatocytes / rat liver regeneration; test: Rat liver regeneration (3H-thymidine incorporation into hepatic DNA and hepatocyte mitosis) after sham operation or 40%/70% hepatectomy; assay type: in vivo, rat (Fisher 344); conditions: for 3H-thymidine incorporation / Proportion of hepatocytes in mitosis: 4 days, mean (SE)
# Protocol: Adult male inbred Fisher 344 rats weighing 180-200 g were purchased from Hilltop Lab Animals Inc (Scottdale, Pa.). The animals were given standard rat laboratory diet and water ad libitum in a temperature and light controlled room (light 0730-1930). […] Animals in groups 3 and 4 had sham operations in which the liver was manipulated at laparotomy. Food and drink were allowed immediately. Parenteral fluid and electrolyte support were not required.
# 24 h after the hepatectomies, 185×10^4 Bq ^3 H-thymidine was administered to all rats by intraperitoneal injection. The rats, including groups 1 and 2, were killed 2 h later by guillotine. Extraction and purification of hepatic DNA were done with the method of Ove et al (Liver and hormones, New York: Raven Press, 1987:265-76) and DNA content was measured with calf thymus DMA (Sigma) as standard. Specimens from each liver were prepared for histological examination with hematoxylin and eosin and the proportion of hepatocytes in mitosis was counted. All results are means and SE.
# [2] = system: midzonal hepatocytes; test: Eck fistula dogs, left portal vein infusion: electron microscopy of hepatocyte organelles; assay type: in vivo, dog (beagle); conditions: for Organelle volume in average midzonal hepatocytes, Lipids, Left / Organelle volume in average midzonal hepatocytes, Lysosomes, Left / Organelle volume in average midzonal hepatocytes, Microbodies, Left / Organelle volume in average midzonal hepatocytes, Mitochondria, Left / Area of rough endoplasmic reticulum per average midzonal hepatocyte, Left / Area of smooth endoplasmic reticulum per average midzonal hepatocyte, Left: left (infused) lobe; for Organelle volume in average midzonal hepatocytes, Lipids, Left / Organelle volume in average midzonal hepatocytes, Lysosomes, Left / Organelle volume in average midzonal hepatocytes, Microbodies, Left / Organelle volume in average midzonal hepatocytes, Mitochondria, Left / Area of rough endoplasmic reticulum per average midzonal hepatocyte, Left / Area of smooth endoplasmic reticulum per average midzonal hepatocyte, Left / Organelle volume in average midzonal hepatocytes, Lipids, Right / Organelle volume in average midzonal hepatocytes, Lysosomes, Right / Organelle volume in average midzonal hepatocytes, Microbodies, Right / Organelle volume in average midzonal hepatocytes, Mitochondria, Right / Area of rough endoplasmic reticulum per average midzonal hepatocyte, Right / Area of smooth endoplasmic reticulum per average midzonal hepatocyte, Right: mean +/- SD; for Area of rough endoplasmic reticulum per average midzonal hepatocyte, Left: left vs right 0.0001; for Organelle volume in average midzonal hepatocytes, Lipids, Right / Organelle volume in average midzonal hepatocytes, Lysosomes, Right / Organelle volume in average midzonal hepatocytes, Microbodies, Right / Organelle volume in average midzonal hepatocytes, Mitochondria, Right / Area of rough endoplasmic reticulum per average midzonal hepatocyte, Right / Area of smooth endoplasmic reticulum per average midzonal hepatocyte, Right: right lobe
# Protocol: Twenty adult female beagle dogs underwent Eck fistula (Starzl et al, Lancet, 1976, 1:821-25). After performing a large side to side portacaval shunt, the left and right portal vein branches were ligated. A small infusion catheter was tied into the left branch and led through the abdominal wall and subcutaneously to a battery charged infusion pump that was incorporated into a non-restraining body cast. A constant infusion was started of the control or test fluids at the volume of 20 to 30 ml/day. Oral fluids and diet were allowed ad lib. Four days later, the animals were administered 0.2 mCi/kg (CH3 -^3 H)-thymidine with specific activity of 80-90 Ci/MMol (New England Nuclear, Boston). Two hours later, the dogs were anesthetized and killed.
# For studies of the organelles, small cubes of each hepatic sample were taken for electron microscopy. The tissue was post-fixed in glutaraldehyde followed by osmic acid. After embedding in Polarbed. 812 resin, ultrathin sections were cut, stained with lead citrate and examined in a Philip's 300 electron microscope. Measurements of the organelles were made on electron micrographs by Loud's method (Loud, J Cell Biol, 1968, 37:27-46).
# Results are expressed as mean±standard deviation (SD). The Student's t-test was employed in individual experimental groups to compare differences between right and left lobes or between groups. A p value less than 0.05 was considered to be significant.
# [3] = group 2: FK 506 1 mg/kg IM, no operation
# [4] = group 10: FK 506 1 mg/kg IM, 70% hepatectomy, p < 0.01 vs group 8
structure (smiles),measurement,setting,value
C=CCC1C=C(C)CC(C)CC(OC)C2OC(O)(C(=O)C(=O)N3CCCCC3C(=O)OC(C(C)=CC3CCC(O)C(OC)C3)C(C)C(O)CC1=O)C(C)CC2OC (centres unmarked) [FK 506],regeneration after hepatectomy compared with controls,"[1]; 4 days pretreatment, intramuscular FK 506 or oral cyclosporin",significantly augmented compared with controls
same,hepatocyte mitosis and DNA synthesis in sham operation group,[1]; FK 506 added to sham operation,further and significantly increased
same,3H-thymidine incorporation,[1]; [3],3.2 × 10^3 cpm/mg DNA
same,Proportion of hepatocytes in mitosis,[1]; [3],1.7%
same,3H-thymidine incorporation,"[1]; group 4: FK 506 1 mg/kg IM, sham operation, p < 0.005 vs groups 1, 2 and 3",10.5 × 10^3 cpm/mg DNA
same,Proportion of hepatocytes in mitosis,"[1]; group 4: FK 506 1 mg/kg IM, sham operation, p < 0.05 vs groups 1 and 2",9.5%
same,3H-thymidine incorporation,"[1]; group 6: FK 506 1 mg/kg IM, 40% hepatectomy, p < 0.001 vs group 5",32.4 × 10^3 cpm/mg DNA
same,3H-thymidine incorporation,[1]; [4],242.0 × 10^3 cpm/mg DNA
same,Proportion of hepatocytes in mitosis,[1]; [4],59.0%
same,"regeneration effect, FK 506 compared with cyclosporin","[1]; group 10 compared with group 9, 70% hepatectomy",greater with FK 506 than with cyclosporin
same,resting hepatocyte mitosis or DNA synthesis,[1]; unoperated rats,did not increase
same,"Organelle volume in average midzonal hepatocytes, Lipids, Left","[2]; 0.01 mg/kg/day, left vs right p 0.0012",23.3 +/- 8.8 uM^3
same,"Organelle volume in average midzonal hepatocytes, Lysosomes, Left","[2]; 0.01 mg/kg/day, left vs right p 0.0017",62.3 +/- 15.1 uM^3
same,"Organelle volume in average midzonal hepatocytes, Microbodies, Left","[2]; 0.01 mg/kg/day, left vs right p 0.0080",99.2 +/- 11.8 uM^3
same,"Organelle volume in average midzonal hepatocytes, Mitochondria, Left","[2]; 0.01 mg/kg/day, left vs right p 0.1903",1233.7 +/- 222.4 uM^3
same,"Area of rough endoplasmic reticulum per average midzonal hepatocyte, Left","[2]; 0.01 mg/kg/day, p vs vehicle 0.0000",26332 +/- 1483 uM^2
same,"Area of smooth endoplasmic reticulum per average midzonal hepatocyte, Left","[2]; 0.01 mg/kg/day, p vs vehicle 0.0661, left vs right 0.0000",18433 +/- 535 uM^2
same,"Organelle volume in average midzonal hepatocytes, Lipids, Right",[2]; 0.01 mg/kg/day,81.0 +/- 15.1 uM^3
same,"Organelle volume in average midzonal hepatocytes, Lysosomes, Right",[2]; 0.01 mg/kg/day,162.6 +/- 48.9 uM^3
same,"Organelle volume in average midzonal hepatocytes, Microbodies, Right",[2]; 0.01 mg/kg/day,173.8 +/- 39.6 uM^3
same,"Organelle volume in average midzonal hepatocytes, Mitochondria, Right",[2]; 0.01 mg/kg/day,1429.5 +/- 331.2 uM^3
same,"Area of rough endoplasmic reticulum per average midzonal hepatocyte, Right","[2]; 0.01 mg/kg/day, p vs vehicle 0.0019",18697 +/- 1010 uM^2
same,"Area of smooth endoplasmic reticulum per average midzonal hepatocyte, Right","[2]; 0.01 mg/kg/day, p vs vehicle 0.1092",23337 +/- 902 uM^2
same,"Organelle volume in average midzonal hepatocytes, Lysosomes, Left","[2]; 0.1 mg/kg/day, left vs right p 0.0000",59.6 +/- 15.6 uM^3
same,"Organelle volume in average midzonal hepatocytes, Lipids, Left","[2]; 0.1 mg/kg/day, left vs right p 0.0011",22.8 +/- 6.7 uM^3
same,"Organelle volume in average midzonal hepatocytes, Microbodies, Left","[2]; 0.1 mg/kg/day, left vs right p 0.0025",86.3 +/- 11.5 uM^3
same,"Organelle volume in average midzonal hepatocytes, Mitochondria, Left","[2]; 0.1 mg/kg/day, left vs right p 0.2529",1288.5 +/- 236.2 uM^3
same,"Area of rough endoplasmic reticulum per average midzonal hepatocyte, Left","[2]; 0.1 mg/kg/day, p vs vehicle 0.0001",29889 +/- 1117 uM^2
same,"Area of smooth endoplasmic reticulum per average midzonal hepatocyte, Left","[2]; 0.1 mg/kg/day, p vs vehicle 0.0703, left vs right 0.0018",18688 +/- 498 uM^2
same,"Organelle volume in average midzonal hepatocytes, Lipids, Right",[2]; 0.1 mg/kg/day,83.8 +/- 19.7 uM^3
same,"Organelle volume in average midzonal hepatocytes, Lysosomes, Right",[2]; 0.1 mg/kg/day,187.6 +/- 14.8 uM^3
same,"Organelle volume in average midzonal hepatocytes, Microbodies, Right",[2]; 0.1 mg/kg/day,172.5 +/- 34.2 uM^3
same,"Organelle volume in average midzonal hepatocytes, Mitochondria, Right",[2]; 0.1 mg/kg/day,1439.3 +/- 115.4 uM^3
same,"Area of rough endoplasmic reticulum per average midzonal hepatocyte, Right","[2]; 0.1 mg/kg/day, p vs vehicle 0.0007",20325 +/- 975 uM^2
same,"Area of smooth endoplasmic reticulum per average midzonal hepatocyte, Right","[2]; 0.1 mg/kg/day, p vs vehicle 0.0725",22747 +/- 1305 uM^2
same,preservation of the RER in the right lobes,"[2]; 1 mg/kg/day, compared to vehicle controls",better preservation of the RER
same,lipid accumulation in right lobes,"[2]; 1 mg/kg/day, compared to vehicle controls, p<0.001",reduced lipid accumulation
same,"Organelle volume in average midzonal hepatocytes, Lysosomes, Left","[2]; 1.0 mg/kg/day, left vs right p 0.0002",48.8 +/- 10.9 uM^3
